Results: patent US20200155567A1, “TREATMENT OF CANCERS USING A COMBINATION COMPRISING PARP INHIBITORS, TEMOZOLOMIDE AND/OR RADIATION THERAPY” (BEIGENE, LTD., priority 2017, published 2020)

How the values were obtained:
PARP1/2 = conditions: disclosed in WO2013/097225A1; cited from earlier work
MDA-MB-436 breast cancer = test: BRCA1-mutant mouse xenograft model (MDA-MB-436 breast cancer); format: in vivo
Source text: (§1) Inhibition of PARylation in the tumor tissues correlated well with tumor drug concentrations of Compound B.

brain penetrance = conditions: in vivo
[1] = test system: newly diagnosed or recurrent/refractory glioblastoma (GBM); test: dose-escalation/expansion study of Compound B with RT and/or TMZ in GBM (Example 5); format: in vivo, human; conditions: across study arms, 15 patients
Experimental: This ongoing dose-escalation/expansion study was designed to determine the safety/tolerability and antitumor effects of Compound B (60 mg PO BID) in combination with RT and/or TMZ. The dose-escalation component consists of 3 arms:
(Arm A) Compound B (60 mg BID) at increasing exposures of 2, 4, or 6 weeks in combination with RT for 6 to 7 weeks, in newly diagnosed patients with GBM with unmethylated MGMT promoter (‘unmethylated GBM’)), and after RT is completed, subjects will receive no further study treatment;
(Arm B) Depending on the safety of the Arm A combination, Compound B in combination with RT for 6 to 7 weeks and increasing TMZ doses, in newly diagnosed patients with unmethylated GBM, and after RT is completed, subjects will receive no further study treatment;
(Arm C) Compound B in combination with increasing dose of TMZ administered on Days 1 to 21 of each 28-day cycle, in patients with recurrent/refractory methylated or unmethylated GBM.
In Arm A, Arm B and Arm C: Compound B was administered at the doses of 60 mg BID (PO); Radiation therapy (RT) was administered QD×5 days/week for 6 to 7 weeks with 1.8 to 2 Gy/fraction for a total dose of up to 60 Gy; flat-dosing was used for TMZ, and the first dose level of 40 mg QD corresponds to 23 mg/m^2 assuming an average body surface area of 1.73 m^2. […]

[2] = test system: tumor cell lines with defects of the HR pathway; test: in vitro activity against tumor cell lines with defects of the HR pathway; format: cell-based
Source text: as §1

[3] = test system: H209-T small cell lung cancer xenografts; test: H209-T intracranial tumor model; format: in vivo, nude mice; conditions: single agent, 2.73 mg/kg BID
Source text: H209-T is a TMZ-resistant cell line generated by treating H209-xenografted tumors with multiple cycles of TMZ in vivo.

[4] = test system: locally advanced or metastatic solid tumors; format: in vivo
Experimental: This dose-escalation/expansion study is enrolling pts using a modified 3+3 design to establish the safety and MTD of Compound B plus TMZ. During dose escalation, pts receive Compound B plus escalating doses of TMZ QD on Days 1-7 (Arm A) or continuously (Arm B) of each 28-day cycle. In Arm A and Arm B: Compound B was administered at the doses of 60 mg PO BID; TMZ was administered at 20 mg, 40 mg, 80 mg, 120 mg QD corresponds to 12 mg/m^2, 23 mg/m^2, 46 mg/m^2and 69 mg/m^2assuming an average body surface area of 1.73 m^2, respectively will be administered PO QD.
The primary endpoint is safety/tolerability, including estimation of MTD and RP2D. Key secondary endpoints are PK profiles of TMZ and Compound B and antitumor activity (RECIST v1.1) of combination treatment; biomarker (eg, gBRCA) assessment is exploratory.

[5] = test system: H209 small cell lung cancer xenograft; conditions: single agent, 2.73 mg/kg BID x 21 days
PARylation = test: PK/PD study, PARylation in MDA-MB-436 breast cancer xenografts; format: in vivo, mice; conditions: oral administration
Source text: as §1

[6] = test system: non-BRCA1/2-mutated cancers; conditions: cited from earlier work

In the case of `C[C@]12CCCN1CC1=NNC(=O)c3cc(F)cc4[nH]c2c1c34` [Compound A, (R)-2-fluoro-10a-methyl-7,8,9,10,10a,11-hexahydro-5,6,7a,11-tetraazacyclohepta[def]cyclopenta[a]fluoren-4(5H)-one], the PARP1/2 inhibitory activities (PARP1/2) is listed as “highly selective and potent”.

With `C[C@]12CCCN1CC1=NNC(=O)c3cc(F)cc4[nH]c2c1c34` [Compound B, (R)-2-fluoro-10a-methyl-7,8,9,10,10a,11-hexahydro-5,6,7a,11-tetraazacyclohepta[def]cyclopenta[a]fluoren-4(5H)-one sesqui-hydrate] the “potency relative to olaparib” value (MDA-MB-436 breast cancer; more potent than olaparib) was 16 fold, the anti-tumor activity (MDA-MB-436 breast cancer; single agent) was “strong anti-tumor activity” and the brain penetrance (brain penetrance) was “significant brain penetrance”. For the same compound, the “Compound B-related AE fatigue (n patients)” value [1] was 5, the “Compound B-related AE nausea (n patients)” value [1] was 6 and the “in vitro activity as a single agent” value [2] was “excellent in vitro activity”. The “effect on tumor growth” value [3] was “no significant effect on tumor growth”, the “most common drug-related AE: nausea (n pts)” value ([4]; 16 pts, Compound B 60 mg BID plus TMZ 20-120 mg QD) was 6 and the plasma exposure ([4]; in combination) was “consistent with single-agent trials”. For the same compound, the “effect on tumor growth” value [5] was “no significant effect on tumor growth” and the “inhibition of PARylation in xenografts” value (PARylation) was “time- and dose-dependent inhibition of PARylation”.

For `Cn1nnc2c(C(N)=O)ncn2c1=O` [TMZ, temozolomide], the “MTD, TMZ” value ([6]; with 1 mg talazoparib) is given as 37 mg/m^2 and the “most common drug-related AE: thrombocytopenia (n pts)” value ([4]; human, in vivo) is given as 5.

For `Cn1ncnc1[C@H]1c2n[nH]c(=O)c3cc(F)cc(c23)N[C@@H]1c1ccc(F)cc1` [talazoparib], the “MTD, talazoparib” value ([6]; plus 37 mg/m^2 of TMZ) is given as 1 mg.
